Measurements: US20220000110A1, “COMPOSITIONS COMPRISING PYRIDINE CARBOXYLATE HERBICIDES AND CELLULOSE BIOSYNTHESIS INHIBITOR HERBICIDES” (priority 2018, published 2022)

Assays:
Experiment in all cases: Greenhouse postemergence herbicidal effect, visual injury after 20-22 d
Assay type in all cases: in vivo
[1] = tested on: Viola tricolor (wild pansy); settings: VIOTR
From the text: (§1) Greenhouse Trial Methodology—Evaluation of Postemergence Herbicidal Effect
(§2) Seeds of the desired test plant species were planted in a 90:10% v/v (volume/volume) mixture of PRO-MIX® BX (Premier Tech Horticulture, Quakertown, Pa., USA) and PROFILE® GREENS GRADE™ (Profile Products LLC, Buffalo Grove, Ill., USA) planting mixture, which typically has a pH of 5.2 to 6.2 and an organic matter content of at least 50 percent, in plastic pots with a surface area of 103.2 square centimeters (cm^2). In some aspects, to help ensure good germination and healthy plants, a fungicide treatment and/or other chemical or physical treatment was applied. The plants were grown for 7-36 days (d) in a greenhouse with an approximate 14-hour (h) photoperiod which was maintained at about 23° C. during the day and 22° C. during the night. Nutrients and water were added on a regular basis and supplemental lighting was provided with overhead metal halide 1000-Watt lamps as necessary. The plants were employed for testing when they reached the second or third true leaf stage.
(§3) Emulsifiable concentrates of each of each pyridine carboxylate herbicide (Compound A or Compound B) were prepared at 100 grams acid equivalent per liter (g ae/L). The emulsifiable concentrates also included a safener, at 120 grams active ingredient per liter (g ai/L). An aliquot of each emulsifiable concentrate was placed in a 25 mL glass vial and diluted with an aqueous mixture of 1.25% (v/v) ACTIROB® B esterified rapeseed oil (Bayer Crop Science, Research Triangle Park, N.C., USA) or MSO® Concentrate with LECI-TECH® methylated soybean oil (Loveland Products, Loveland, Colo., USA) to obtain concentrated stock solutions at the highest application rate for each herbicide, based upon a 12 milliliter (mL) application volume at a rate of 187 liters per hectare (L/ha). The concentrated stock solutions were further diluted with an aqueous mixture of 1.25% v/v ACTIROB® B or MSO® Concentrate with LECI-TECH® to obtain stock solutions at reduced application rates for each herbicide. Spray solutions of the herbicide combinations (Compound A or Compound B plus the CBI herbicide) were prepared by adding weighed amounts or aliquots of the CBI herbicide to the stock solutions of Compound A or Compound B to form 12-mL spray solutions in two-way combinations.
(§4) The spray solutions were applied to the plant material with an overhead Mandel track sprayer equipped with 8002E nozzles calibrated to deliver 187 L/ha over an application area of 0.503 square meters (m^2) at a spray height of 18 inches (43 centimeters (cm)) above the average plant canopy. Control plants were sprayed in the same manner with the solvent blank. All pyridine carboxylate herbicide (component a) application rates are given as “g ae/ha” and all CBI herbicide (component b) application rates are given as “g ai/ha.”
(§5) The treated plants and control plants were placed in a greenhouse as described above and watered by sub-irrigation to prevent wash-off of the test compounds. After 20-22 d, the condition of the test plants as compared with that of the control plants was determined visually and scored on a scale of 0 to 100 percent where 0 corresponds to no injury and 100 corresponds to complete kill.

[2] = tested on: Lolium multiflorum (Italian rye grass); settings: Table 2, LOLMU
From the text: as §1, §2, §3, §4, §5

Glycine max (soybean) = settings: Table 1, GLXMA
From the text: as §1, §2, §3, §4, §5

[3] = tested on: Salsola kali (Russian thistle); settings: SASKR
From the text: as §1, §2, §3, §4, §5

Kochia scoparia (kochia) = settings: KCHSC
From the text: as §1, §2, §3, §4, §5

[4] = tested on: Euphorbia heterophylla (poinsettia); settings: Table 1, EPHHL
From the text: as §1, §2, §3, §4, §5

[5] = tested on: Chenopodium album L. (common lambsquarters); settings: CHEAL
From the text: as §1, §2, §3, §4, §5

[6] = tested on: Brassica napus (spring rape); settings: BRSNN
From the text: as §1, §2, §3, §4, §5

[7] = tested on: Cirsium arvense (Canadian thistle); settings: CIRAR
From the text: as §1, §2, §3, §4, §5

[8] = tested on: Matricaria chamomilla (wild chamomile); settings: MATCH
From the text: as §1, §2, §3, §4, §5

[9] = tested on: Amaranthus retroflexus (pigweed); settings: AMARE
From the text: as §1, §2, §3, §4, §5

[10] = tested on: Stellaria media (chickweed); settings: Table 1, STEME
From the text: as §1, §2, §3, §4, §5

N#CCOC(=O)c1nc(-c2ccc3cc[nH]c3c2F)c(F)c(N)c1Cl [Compound A, cyanomethyl 4-amino-3-chloro-5-fluoro-6-(7-fluoro-1H-indol-6-yl)pyridine-2-carboxylate]
Obs % visual injury ([1]; Table 1, Compound A 7.5 g/ha): 38% | Obs % visual injury ([1]; Table 1, Compound A 10 g/ha): 15% | Obs % visual injury ([1]; Table 2, Compound A 7.5 g/ha): 10% | Obs % visual injury ([1]; Table 2, Compound A 10 g/ha): 18% | Obs % visual injury ([2]; Compound A 7.5 g/ha): 0% | Obs % visual injury ([2]; Compound A 10 g/ha): 0% | Obs % visual injury (Glycine max (soybean); Compound A 7.5 g/ha): 80% | Obs % visual injury (Glycine max (soybean); Compound A 10 g/ha): 90% | Obs % visual injury ([3]; Table 3, Compound A 7.5 g/ha): 55% | Obs % visual injury ([3]; Table 3, Compound A 10 g/ha): 58% | Obs % visual injury ([3]; Table 3, Compound A 15 g/ha): 65% | Obs % visual injury ([3]; Table 4, Compound A 7.5 g/ha): 55% | Obs % visual injury ([3]; Table 4, Compound A 10 g/ha): 58% | Obs % visual injury ([3]; Table 4, Compound A 15 g/ha): 65% | Obs % visual injury (Kochia scoparia (kochia); Table 1, Compound A 7.5 g/ha): 75% | Obs % visual injury (Kochia scoparia (kochia); Table 1, Compound A 10 g/ha): 73% | Obs % visual injury (Kochia scoparia (kochia); Table 2, Compound A 7.5 g/ha): 60% | Obs % visual injury (Kochia scoparia (kochia); Table 2, Compound A 10 g/ha): 65% | Obs % visual injury (Kochia scoparia (kochia); Table 3, Compound A 7.5 g/ha): 70% | Obs % visual injury (Kochia scoparia (kochia); Table 3, Compound A 10 g/ha): 70% | Obs % visual injury (Kochia scoparia (kochia); Table 3, Compound A 15 g/ha): 70% | Obs % visual injury (Kochia scoparia (kochia); Table 4, Compound A 7.5 g/ha): 70% | Obs % visual injury (Kochia scoparia (kochia); Table 4, Compound A 10 g/ha): 70% | Obs % visual injury (Kochia scoparia (kochia); Table 4, Compound A 15 g/ha): 70% | Obs % visual injury ([4]; Compound A 7.5 g/ha): 97% | Obs % visual injury ([4]; Compound A 10 g/ha): 97% | Obs % visual injury ([5]; Table 1, Compound A 7.5 g/ha): 98% | Obs % visual injury ([5]; Table 1, Compound A 10 g/ha): 93% | Obs % visual injury ([5]; Table 3, Compound A 7.5 g/ha): 70% | Obs % visual injury ([5]; Table 3, Compound A 10 g/ha): 78% | Obs % visual injury ([5]; Table 3, Compound A 15 g/ha): 83% | Obs % visual injury ([5]; Table 4, Compound A 7.5 g/ha): 70% | Obs % visual injury ([5]; Table 4, Compound A 10 g/ha): 78% | Obs % visual injury ([5]; Table 4, Compound A 15 g/ha): 83% | Obs % visual injury ([6]; Table 1, Compound A 7.5 g/ha): 65% | Obs % visual injury ([6]; Table 1, Compound A 10 g/ha): 65% | Obs % visual injury ([6]; Table 2, Compound A 7.5 g/ha): 73% | Obs % visual injury ([6]; Table 2, Compound A 10 g/ha): 83% | Obs % visual injury ([7]; Table 1, Compound A 7.5 g/ha): 40% | Obs % visual injury ([7]; Table 1, Compound A 10 g/ha): 60% | Obs % visual injury ([7]; Table 2, Compound A 7.5 g/ha): 23% | Obs % visual injury ([7]; Table 2, Compound A 10 g/ha): 20% | Obs % visual injury ([8]; Table 3, Compound A 7.5 g/ha): 8% | Obs % visual injury ([8]; Table 3, Compound A 10 g/ha): 15% | Obs % visual injury ([8]; Table 3, Compound A 15 g/ha): 10% | Obs % visual injury ([8]; Table 4, Compound A 7.5 g/ha): 8% | Obs % visual injury ([8]; Table 4, Compound A 10 g/ha): 15% | Obs % visual injury ([8]; Table 4, Compound A 15 g/ha): 10% | Obs % visual injury ([9]; Table 1, Compound A 7.5 g/ha): 88% | Obs % visual injury ([9]; Table 1, Compound A 10 g/ha): 88% | Obs % visual injury ([9]; Table 3, Compound A 7.5 g/ha): 78% | Obs % visual injury ([9]; Table 3, Compound A 10 g/ha): 78% | Obs % visual injury ([9]; Table 3, Compound A 15 g/ha): 83% | Obs % visual injury ([9]; Table 4, Compound A 7.5 g/ha): 78% | Obs % visual injury ([9]; Table 4, Compound A 10 g/ha): 78% | Obs % visual injury ([9]; Table 4, Compound A 15 g/ha): 83% | Obs % visual injury ([10]; Compound A 7.5 g/ha): 89% | Obs % visual injury ([10]; Compound A 10 g/ha): 90%
